We go through 18 molecules from ChEMBL document CHEMBL4130560, “Discovery of Indolinone-Based Multikinase Inhibitors as Potential Therapeutics for Idiopathic Pulmonary Fibrosis” (ACS Med Chem Lett, 2017).

Data set [1] has as its target Voltage-gated inwardly rectifying potassium channel KCNH2 (Homo sapiens, UniProt Q12809).
Data set [2] deals with Platelet-derived growth factor receptor beta (Homo sapiens, UniProt P09619). In words: Inhibition of recombinant PDGFRbeta (unknown origin) by off-chip mobility shift assay.
Sequence of Platelet-derived growth factor receptor beta (P09619 whole entry): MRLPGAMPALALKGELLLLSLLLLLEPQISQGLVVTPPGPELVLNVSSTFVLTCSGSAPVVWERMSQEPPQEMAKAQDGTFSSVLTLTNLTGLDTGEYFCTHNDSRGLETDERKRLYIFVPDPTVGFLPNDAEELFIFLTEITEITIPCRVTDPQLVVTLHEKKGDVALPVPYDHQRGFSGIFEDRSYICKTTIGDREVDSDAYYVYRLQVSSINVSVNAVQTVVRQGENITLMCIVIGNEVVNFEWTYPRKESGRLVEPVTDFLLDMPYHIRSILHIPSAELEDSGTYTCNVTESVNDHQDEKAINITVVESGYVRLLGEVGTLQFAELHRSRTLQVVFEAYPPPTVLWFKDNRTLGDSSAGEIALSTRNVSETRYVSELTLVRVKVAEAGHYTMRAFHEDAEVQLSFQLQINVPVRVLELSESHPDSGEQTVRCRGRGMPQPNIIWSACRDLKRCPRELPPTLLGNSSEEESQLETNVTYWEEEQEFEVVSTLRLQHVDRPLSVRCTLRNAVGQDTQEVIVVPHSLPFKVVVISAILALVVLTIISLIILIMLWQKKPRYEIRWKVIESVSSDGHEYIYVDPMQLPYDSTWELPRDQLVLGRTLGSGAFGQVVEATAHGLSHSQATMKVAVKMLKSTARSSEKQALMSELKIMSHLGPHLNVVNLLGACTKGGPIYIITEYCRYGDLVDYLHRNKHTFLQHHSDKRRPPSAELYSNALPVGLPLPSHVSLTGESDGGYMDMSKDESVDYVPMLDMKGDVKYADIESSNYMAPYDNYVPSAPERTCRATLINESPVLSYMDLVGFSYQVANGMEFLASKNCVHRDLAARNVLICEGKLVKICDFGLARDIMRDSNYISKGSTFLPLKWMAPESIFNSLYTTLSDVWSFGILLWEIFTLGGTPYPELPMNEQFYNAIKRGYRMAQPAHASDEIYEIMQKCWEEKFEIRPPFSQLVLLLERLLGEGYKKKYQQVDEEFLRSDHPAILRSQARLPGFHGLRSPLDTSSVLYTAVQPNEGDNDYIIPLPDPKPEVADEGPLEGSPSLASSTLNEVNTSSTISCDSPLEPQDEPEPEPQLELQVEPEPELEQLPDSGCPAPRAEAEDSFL
Data set [3] concerns Mus musculus. In words: Toxicity in C57 mouse assessed as lethality at 5 mg/kg, iv after 28 days. Format: organism-based. The following applies: in vivo, 672 h.
Data set [4] is described as follows: Half life in CD1 mouse at 50 mg/kg, iv by UFLC-MS/MS analysis. Format: ADME, organism-based. The following applies: in vivo.
A short description of data set [5]: Oral bioavailability in Sprague-Dawley rat at 10 mg/kg administered via gavage by UFLC-MS/MS analysis. Format: ADME, organism-based. The following applies: in vivo.
Data set [6] is described as follows: Oral bioavailability in CD1 mouse at 50 mg/kg administered via gavage by UFLC-MS/MS analysis. It is filed as ADME, organism-based. The conditions noted are these: in vivo.
Data set [7] in a line: Half life in Beagle dog […] at 20 mg/kg, iv by UFLC-MS/MS analysis. It is filed as ADME, organism-based, Canis lupus familiaris. The conditions noted are these: in vivo.
In data set [8] the test system is Mus musculus. In words: Antifibrotic activity in BLM-induced chronic pulmonary fibrosis C57 mouse model assessed as increase in survival rate administered qd measured up to 28 days. Format: functional, organism-based.
Data set [9] in a line: AUC in CD1 mouse at 50 mg/kg, iv by UFLC-MS/MS analysis. It is filed as ADME, organism-based. The conditions noted are these: in vivo.
Data set [10] has as its target Mast/stem cell growth factor receptor Kit (Homo sapiens, UniProt P10721). The experiment in a line: Inhibition of recombinant c-KIT (unknown origin) by off-chip mobility shift assay.
Data set [11] can be described thus: Oral bioavailability in Beagle dog […] at 20 mg/kg administered via gavage by UFLC-MS/MS analysis. The following applies: in vivo. It is filed as ADME, organism-based, Canis lupus familiaris.
Data set [12] concerns Mus musculus. In words: Toxicity in C57 mouse at 10 to 100 mg/kg, po administered qd measured up to 28 days. The following applies: in vivo, 672 h. Format: organism-based.
Data set [13] can be described thus: Half life in Sprague-Dawley rat at 10 mg/kg, iv by UFLC-MS/MS analysis. Format: ADME, organism-based. The conditions noted are these: in vivo.
Data set [14] in a line: AUC in Sprague-Dawley rat at 10 mg/kg, iv by UFLC-MS/MS analysis. It is filed as ADME, organism-based. The following applies: in vivo.
Data set [15] in a line: AUC in Beagle dog […] at 20 mg/kg, iv by UFLC-MS/MS analysis. It is filed as ADME, organism-based, Canis lupus familiaris. The following applies: in vivo.

As a reminder, the IC50 is the concentration at which inhibition is half-maximal. The term half-life denotes the time in which the quantity being followed falls by half. Low values mean rapid decline, high ones slow decline. As usually defined, the bioavailability is dose-corrected exposure relative to a reference, in per cent. Broadly, the AUC is the area under the concentration-time curve, a measure of exposure. The low end stands for less exposure, the high end for more exposure.

Sequence of Voltage-gated inwardly rectifying potassium channel KCNH2 (Q12809 whole entry): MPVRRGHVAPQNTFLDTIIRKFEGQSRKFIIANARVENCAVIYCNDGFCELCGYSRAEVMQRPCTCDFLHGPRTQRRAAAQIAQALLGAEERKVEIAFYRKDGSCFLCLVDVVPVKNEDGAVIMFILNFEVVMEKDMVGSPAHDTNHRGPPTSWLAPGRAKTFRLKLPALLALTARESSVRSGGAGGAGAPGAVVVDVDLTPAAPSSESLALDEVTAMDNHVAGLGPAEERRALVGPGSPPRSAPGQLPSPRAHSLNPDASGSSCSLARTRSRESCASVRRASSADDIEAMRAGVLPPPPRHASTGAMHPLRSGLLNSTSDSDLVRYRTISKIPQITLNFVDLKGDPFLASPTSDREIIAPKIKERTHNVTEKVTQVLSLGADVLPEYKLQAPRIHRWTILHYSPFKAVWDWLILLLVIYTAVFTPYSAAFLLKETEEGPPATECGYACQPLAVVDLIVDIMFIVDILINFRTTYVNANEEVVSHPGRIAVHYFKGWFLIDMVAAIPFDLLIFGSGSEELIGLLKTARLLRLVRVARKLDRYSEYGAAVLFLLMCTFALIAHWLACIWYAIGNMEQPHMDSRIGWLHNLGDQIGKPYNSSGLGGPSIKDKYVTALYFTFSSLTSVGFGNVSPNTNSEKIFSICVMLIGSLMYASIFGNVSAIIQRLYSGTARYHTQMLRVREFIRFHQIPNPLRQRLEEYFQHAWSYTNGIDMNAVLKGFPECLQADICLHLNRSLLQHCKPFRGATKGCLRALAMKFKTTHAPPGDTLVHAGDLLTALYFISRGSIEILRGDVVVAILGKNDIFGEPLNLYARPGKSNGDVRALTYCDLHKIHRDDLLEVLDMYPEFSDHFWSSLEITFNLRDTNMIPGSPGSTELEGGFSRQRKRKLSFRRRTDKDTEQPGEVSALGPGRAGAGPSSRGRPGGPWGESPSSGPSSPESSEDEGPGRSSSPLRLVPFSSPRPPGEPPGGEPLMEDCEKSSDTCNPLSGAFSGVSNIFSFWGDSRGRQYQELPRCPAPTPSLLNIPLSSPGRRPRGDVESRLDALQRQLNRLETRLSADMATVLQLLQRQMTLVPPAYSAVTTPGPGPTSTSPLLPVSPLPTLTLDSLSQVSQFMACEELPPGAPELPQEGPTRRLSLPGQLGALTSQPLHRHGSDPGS
Sequence of Mast/stem cell growth factor receptor Kit (P10721 whole entry): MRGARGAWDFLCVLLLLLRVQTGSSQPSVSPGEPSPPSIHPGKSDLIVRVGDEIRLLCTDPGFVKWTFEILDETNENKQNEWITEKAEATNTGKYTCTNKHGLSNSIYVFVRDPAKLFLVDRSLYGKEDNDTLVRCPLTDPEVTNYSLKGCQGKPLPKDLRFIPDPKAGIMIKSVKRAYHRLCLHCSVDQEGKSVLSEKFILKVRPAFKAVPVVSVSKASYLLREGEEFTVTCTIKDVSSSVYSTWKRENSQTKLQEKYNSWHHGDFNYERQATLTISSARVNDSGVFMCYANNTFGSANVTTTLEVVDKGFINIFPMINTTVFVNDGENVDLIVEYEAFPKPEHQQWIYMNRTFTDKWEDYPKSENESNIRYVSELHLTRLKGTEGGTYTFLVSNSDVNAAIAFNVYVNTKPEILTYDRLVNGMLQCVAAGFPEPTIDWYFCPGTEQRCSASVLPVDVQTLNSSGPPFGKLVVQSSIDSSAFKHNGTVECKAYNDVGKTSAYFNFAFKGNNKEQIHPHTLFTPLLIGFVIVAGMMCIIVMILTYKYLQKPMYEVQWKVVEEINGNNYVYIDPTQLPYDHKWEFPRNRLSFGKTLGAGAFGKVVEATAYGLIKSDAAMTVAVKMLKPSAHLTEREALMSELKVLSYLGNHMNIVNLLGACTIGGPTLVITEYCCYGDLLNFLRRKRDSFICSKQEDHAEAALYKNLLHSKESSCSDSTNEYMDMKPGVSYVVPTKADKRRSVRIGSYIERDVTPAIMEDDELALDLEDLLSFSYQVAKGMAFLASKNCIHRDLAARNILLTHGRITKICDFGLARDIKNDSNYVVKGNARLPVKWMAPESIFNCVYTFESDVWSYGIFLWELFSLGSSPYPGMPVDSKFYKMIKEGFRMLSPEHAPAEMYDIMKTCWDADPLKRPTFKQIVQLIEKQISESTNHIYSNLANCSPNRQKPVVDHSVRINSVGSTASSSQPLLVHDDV

In data set [1], `COC(=O)c1ccc2c(c1)NC(=O)/C2=C(\Nc1ccc(N(C)C(=O)CN2CCN(C)CC2)cc1)c1ccccc1` [NINTEDANIB] came in with an IC50 of 2.6 nM.
With `CN1CCN(CC(=O)N(C)c2ccc(N/C(=C3\C(=O)Nc4cc(OC(F)(F)F)ccc43)c3ccccc3)cc2)CC1`, in data set [2], the IC50 is 27 nM.
With `COC(=O)c1ccc2c(c1)NC(=O)/C2=C(\Nc1ccc2c(c1)N(C(=O)Cn1cncn1)CC2)c1ccccc1`, the figures for the IC50 in data set [1] and in [2] were above 30 nM and 15 nM, respectively.
In the case of `CN1CCN(CC(=O)N(C)c2ccc(N/C(=C3\C(=O)Nc4cc(-n5nccn5)ccc43)c3ccccc3)cc2)CC1`, the half-inhibitory concentration (IC50) in [2] amounted to 1.5 nM.
For the molecule `CN1CCN(CC(=O)N(C)c2ccc(N/C(=C3\C(=O)Nc4cc(-c5ncon5)ccc43)c3ccccc3)cc2)CC1`, the Activity entry with Mus musculus [3] is given as “Toxic”. In addition, the concentration for half-maximal inhibition (IC50) in data set [2] is 5.3 nM.
Take `COC(=O)c1ccc2c(c1)NC(=O)/C2=C(\Nc1ccc2c(c1)N(C(=O)CN(C)C)CC2)c1ccccc1`: the concentration for half-maximal inhibition (IC50) in data set [2] turned out to be 15 nM.
Still for that read-out and setting: the result for `CN1CCN(CC(=O)N(C)c2ccc(N/C(=C3\C(=O)Nc4cc(-c5cnco5)ccc43)c3ccccc3)cc2)CC1` reads 34 nM; that for `COC(=O)c1ccc2c(c1)NC(=O)/C2=C(\Nc1ccc(N2CCC(CN3CCN(C)CC3)C2=O)cc1)c1ccccc1` (stereo unspecified), 45 nM.
For the molecule `COC(=O)c1ccc2c(c1)NC(=O)/C2=C(\Nc1ccc2c(c1)N(C(=O)Cn1cccn1)CC2)c1ccccc1`, the values for the IC50 in data set [1] and in data set [2] were above 30 nM and 24 nM, respectively.
With `COC(=O)c1ccc2c(c1)NC(=O)/C2=C(\Nc1ccc2c(c1)N(C(=O)CN1CCOCC1)CC2)c1ccccc1`, the half-life was 4.3 h in data set [4], 3.3 h in data set [7] and 4.8 h in data set [13]. Moreover, the results for the bioavailability in data set [5], in [6] and in [11] were 68%, 51% and 29%, respectively. Also, the IC50 is above 30 nM in [1], 10 nM in [10] and 25 nM in data set [2]. Besides, the Activity entry was “Dose-dependent effect” in the data set on Mus musculus [8] and “Non-Toxic” in the data set with Mus musculus [12]. The AUC in [9] stood at 17000 ng·h/mL; in [14] it was 6410 ng·h/mL; in [15], 2960 ng·h/mL.
With `COC(=O)c1ccc2c(c1)NC(=O)/C2=C(\Nc1ccc(N2C(=O)CC[C@@H]2CN(C)C)cc1)c1ccccc1`, the IC50 in data set [2] worked out at 14 nM.
With `COC(=O)c1ccc2c(c1)NC(=O)/C2=C(\Nc1ccc(N2C(=O)CC[C@@H]2CN2CCN(C)CC2)cc1)c1ccccc1`, the IC50 in data set [2] worked out at 3.2 nM.
For the molecule `CN1CCN(CC(=O)N(C)c2ccc(N/C(=C3\C(=O)Nc4cc(-c5ncno5)ccc43)c3ccccc3)cc2)CC1`, in data set [2], the half-maximal inhibitory concentration (IC50) was found to be 4.5 nM.
As for `COC(=O)c1ccc2c(c1)NC(=O)/C2=C(\Nc1ccc2c(c1)N(C(=O)CN1CC(C)OC(C)C1)CC2)c1ccccc1` (stereo unspecified), the IC50 is above 30 nM in data set [1] and 91 nM in data set [2].
Turning to `CN1CCN(CC(=O)N(C)c2ccc(N/C(=C3\C(=O)Nc4cc(-c5ccco5)ccc43)c3ccccc3)cc2)CC1`, the IC50 in [2] was 12 nM.
In the case of `COC(=O)c1ccc2c(c1)NC(=O)/C2=C(\Nc1ccc2c(c1)N(C(=O)CN1CCCC1=O)CC2)c1ccccc1`, the IC50 in [1] was above 30 nM; in data set [2], 19 nM.
As to `CN1CCN(CC(=O)N(C)c2ccc(N/C(=C3\C(=O)Nc4cc(-c5nnn(C)n5)ccc43)c3ccccc3)cc2)CC1`, the IC50 in data set [2] was 13 nM.
On to `COC(=O)c1ccc2c(c1)NC(=O)/C2=C(\Nc1ccc(N2C(=O)CC[C@H]2CN2CCN(C)CC2)cc1)c1ccccc1`, for which the IC50 in data set [2] was determined as 4.3 nM.
